Measured values as given in US11925629B2, “Heterocyclic inhibitors of ERK1 and ERK2 and their use in the treatment of cancer” (Asana Biosciences, LLC, priority 2015, dated 2024).
Read-outs that look alike come from different tables or passages of the source.

Columns and labels:
Format in all cases: cell-based, human
[1] = test system: HT-29 (colorectal carcinoma, B-RafV600E) cells; test: Cell proliferation (Alamar Blue) assay, HT-29; details: Homo sapiens, HT-29, HT29 cells
Method in brief: (§1)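 A 72 h exposure to compound (3-fold series, typically 0.0005 to 10 uM) of cells seeded at 5000/well precedes a 1-3 h Alamar Blue (1×) incubation. Growth inhibition is quantified by fluorescence and fitted to give IC50.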

[2] = test system: HCT116 (colorectal carcinoma, K Ras G13D) cells; test: Cell proliferation (Alamar Blue) assay, HCT116; details: Homo sapiens, HCT-116, HCT116 cells
Method in brief: as §1

[3] = test system: phosphorylation of RSK1(S380) (the downstream target of ERK1/2); test: Phospho-RSK1(S380) ELISA assay in HT-29 cells; details: Homo sapiens, HT-29, HT29 cells, read-out: Mechanistic Cell Assay RSK1 Phos HT29 IC50
Method: Phospho-RSK1(S380) ELISA Assay
HT-29 cells (colorectal carcinoma, B-RafV600E); obtained from ATCC, USA) were seeded (60,000 cells/well) in a 96-well plate and incubated at 37° C./5% CO2 overnight and then treated with desired compound dilutions for 2 h. Medium was removed and cells were rinsed once with ice-cold 1×PBS, then 0.070 mL ice-cold 1× cell lysis buffer containing 1 mM PMSF was added to each well and the plate was incubated on a shaker for 2 h and 30 min at 4° C. The plate was then centrifuged for 20 min (×4000 rpm) at 4° C. and the supernatant was transferred to a new plate. Cell lysates were diluted with sample diluent at a ratio of 1:1. The ELISA was then carried out following the manufacturer's protocol (PathScan® phospho-RSK1(Ser380) Sandwich ELISA Kit, Cell Signaling Technologies). The plate was read at 450 nm within 30 min after adding STOP solution. The IC50 values were subsequently determined using a sigmoidal dose-response curve (variable slope) in GraphPad Prism® 5 software.

Cc1cnc(NC2CCOCC2)nc1-n1cnc(C(=O)NC(CN)c2cccc(Cl)c2)c1 (racemic) [Compound 225, N-(2-Amino-1-(3-chlorophenyl)ethyl)-1-(5-methyl-2-((tetrahydro-2H-pyran-4-yl)amino)pyrimidin-4-yl)-1H-imidazole-4-carboxamide]
IC50 [1]: ≤ 0.1 µM | IC50 [2]: ≤ 0.1 µM | IC50 ([3]; phospho-RSK1(S380)): ≤ 0.1 µM

Cc1cnc(NC2CCOCC2)nc1-n1cnc(C(=O)N[C@@H](CN)c2cccc(Cl)c2)c1 (single isomer, unassigned) [Compound 225b]
IC50 [1]: ≤ 0.1 µM | IC50 [2]: 0.5 to 2.5 µM | IC50 ([3]; phospho-RSK1(S380)): 0.1 to 0.25 µM

Cc1cnc(Nc2ccccc2)cc1-n1ccc(C(=O)NC(CO)c2ccccc2)c1 (stereo not shown) [Cmpd 74, N-(2-hydroxy-1-phenylethyl)-1-(5-methyl-2-(phenyl-amino)pyridin-4-yl)-1H-pyrrole-3-carboxamide]
IC50 [1]: 0.5 to 2.5 µM | IC50 [2]: > 2.5 µM | IC50 ([3]; phospho-RSK1(S380)): 0.5 to 2.5 µM

O=C(NC(CO)c1cccc(Cl)c1)c1cn(-c2ccnc(Nc3ccccc3)c2)cn1 (stereo not shown) [Cmpd 77, N-(1-(3-chloro-phenyl)-2-hydroxy-ethyl)-1-(2-(phenyl-amino)pyridin-4-yl)-1H-imidazole-4-carboxamide]
IC50 [1]: 0.5 to 2.5 µM | IC50 [2]: > 2.5 µM | IC50 ([3]; phospho-RSK1(S380)): 0.1 to 0.25 µM

Cc1cnc(NC2CCOCC2)nc1-n1cnc(C(=O)NCc2cccc(Cl)c2CO)c1 [Cmpd 93, N-(3-chloro-2-(hydroxy-methyl)benzyl)-1-(5-methyl-2-((tetrahydro-2H-pyran-4-yl)amino)-pyrimidin-4-yl)-1H-imidazole-4-carboxamide]
IC50 [1]: ≤ 0.1 µM | IC50 [2]: ≤ 0.1 µM | IC50 ([3]; phospho-RSK1(S380)): ≤ 0.1 µM

CC[C@H](CO)Nc1cc(-n2cnc(C(=O)N[C@H](CO)c3cccc(Cl)c3)c2)ccn1 [Cmpd 105, N-((S)-1-(3-chlorophenyl)-2-hydroxy-ethyl)-1-(2-(((R)-1-hydroxy-butan-2-yl)amino)pyridin-4-yl)-1H-imidazole-4-carboxamide]
IC50 [1]: > 2.5 µM | IC50 [2]: > 2.5 µM | IC50 ([3]; phospho-RSK1(S380)): 0.1 to 0.25 µM

O=C(NC(CO)c1cccc(Cl)c1)c1cn(-c2cc(Nc3ccccc3)ncc2Cl)cn1 (stereo not shown) [Cmpd 106, 1-(5-chloro-2-(phenyl-amino)pyridin-4-yl)-N-(1-(3-chlorophenyl)-2-hydroxy-ethyl)-1H-imidazole-4-carboxamide]
IC50 [1]: 0.5 to 2.5 µM | IC50 [2]: > 2.5 µM | IC50 ([3]; phospho-RSK1(S380)): 0.1 to 0.25 µM

Cc1cnc(Nc2ccc3c(c2)OC(F)(F)O3)nc1-n1ccc(C(=O)NC(CN)c2cccc(Cl)c2)c1 (stereo not shown) [Cmpd 136, N-(2-amino-1-(3-chloro-phenyl)ethyl)-1-(2-((2,2-difluoro-benzo[d][1,3]dioxol-5-yl)amino)-5-methyl-pyrimidin-4-yl)-1H-pyrrole-3-carboxamide]
IC50 [1]: 0.5 to 2.5 µM | IC50 [2]: 0.5 to 2.5 µM | IC50 ([3]; phospho-RSK1(S380)): > 2.5 µM

Cc1cnc(Nc2ccc(F)cc2)nc1-n1cc(C(=O)NC(CO)c2ccccc2)nc1C (stereo not shown) [Cmpd 153, 1-(2-((4-fluoro-phenyl)amino)-5-methyl-pyrimidin-4-yl)-N-(2-hydroxy-1-phenylethyl)-2-methyl-1H-imidazole-4-carboxamide]
IC50 [1]: > 2.5 µM | IC50 [2]: > 2.5 µM | IC50 ([3]; phospho-RSK1(S380)): > 2.5 µM

Cc1cnc(Nc2ccc(F)cc2)cc1-n1ccc(C(=O)NC(CN)c2cccc(Cl)c2)c1 (stereo not shown) [Cmpd 159, N-(2-amino-1-(3-chloro-phenyl)ethyl)-1-(2-((4-fluoro-phenyl)amino)-5-methyl-pyridin-4-yl)-1H-pyrrole-3-carboxamide]
IC50 [1]: 0.5 to 2.5 µM | IC50 [2]: 0.5 to 2.5 µM | IC50 ([3]; phospho-RSK1(S380)): 0.5 to 2.5 µM

O=C(NC(CO)c1cccc(Cl)c1)c1cn(-c2ccnc(Nc3ccc4c(c3)CCO4)c2)cn1 (stereo not shown) [Cmpd 163, N-(1-(3-chloro-phenyl)-2-hydroxy-ethyl)-1-(2-((2,3-dihydro-benzofuran-5-yl)amino)pyridin-4-yl)-1H-imidazole-4-carboxamide]
IC50 [1]: 0.5 to 2.5 µM | IC50 [2]: > 2.5 µM | IC50 ([3]; phospho-RSK1(S380)): 0.1 to 0.25 µM

Cc1cnc(NC2CCOCC2)nc1-n1cnc(C(=O)N[C@H](CN)c2cccc(Cl)c2)c1 [Cmpd 225a]
IC50 [1]: ≤ 0.1 µM | IC50 [2]: ≤ 0.1 µM | IC50 ([3]; phospho-RSK1(S380)): ≤ 0.1 µM

Cc1cnc(NC2COC2)nc1-n1cnc(C(=O)N[C@H](CN)c2cccc(Cl)c2)c1 [Example 268, (S)-N-(2-amino-1-(3-chlorophenyl)ethyl)-1-(5-methyl-2-(oxetan-3-ylamino)pyrimidin-4-yl)-1H-imidazole-4-carboxamide]
IC50 [2]: ≤ 0.1 µM | IC50 ([3]; phospho-RSK1(S380)): ≤ 0.1 µM

Cc1cnc(Nc2ccc3c(c2)OCO3)nc1-n1cnc(C(=O)NC(CN)c2cc(F)cc(Cl)c2)c1 (stereo not shown) [Example 269, N-(2-amino-1-(3-chloro-5-fluorophenyl)ethyl)-1-(2-(benzo[d][1,3]dioxol-5-ylamino)-5-methylpyrimidin-4-yl)-1H-imidazole-4-carboxamide]
IC50 [2]: ≤ 0.1 µM | IC50 ([3]; phospho-RSK1(S380)): ≤ 0.1 µM

Cc1cnc(NC2CCOc3ccccc32)nc1-n1cnc(C(=O)N[C@H](CN)c2cccc(Cl)c2)c1 (stereo partly drawn) [Example 271, N-((S)-2-amino-1-(3-chlorophenyl)ethyl)-1-(2-(chroman-4-ylamino)-5-methylpyrimidin-4-yl)-1H-imidazole-4-carboxamide]
IC50 [2]: ≤ 0.1 µM | IC50 ([3]; phospho-RSK1(S380)): ≤ 0.1 µM

Cc1cnc(Nc2cccc(N3CCOCC3)c2)nc1-n1cnc(C(=O)N[C@H](CN)c2cccc(Cl)c2)c1 [Example 272, (S)-N-(2-amino-1-(3-chlorophenyl)ethyl)-1-(5-methyl-2-((3-morpholinophenyl)amino)pyrimidin-4-yl)-1H-imidazole-4-carboxamide]
IC50 [2]: 0.1 to 0.25 µM | IC50 ([3]; phospho-RSK1(S380)): 0.25 to 0.5 µM

Cc1cnc(NC2CC(F)(F)C2)nc1-n1cnc(C(=O)NCc2cccc(Cl)c2CO)c1 [Example 273, N-(3-chloro-2-(hydroxymethyl)benzyl)-1-(2-((3,3-difluorocyclobutyl)amino)-5-methylpyrimidin-4-yl)-1H-imidazole-4-carboxamide]
IC50 [2]: ≤ 0.1 µM | IC50 ([3]; phospho-RSK1(S380)): 0.1 to 0.25 µM

Cc1cnc(NC2CC(F)(F)C2)nc1-n1cnc(C(=O)NC(CN)c2cc(F)cc(Cl)c2)c1 (stereo not shown) [Example 278, N-(2-amino-1-(3-chloro-5-fluorophenyl)ethyl)-1-(2-((3,3-difluorocyclobutyl)amino)-5-methylpyrimidin-4-yl)-1H-imidazole-4-carboxamide]
IC50 [2]: ≤ 0.1 µM | IC50 ([3]; phospho-RSK1(S380)): ≤ 0.1 µM

Cc1cnc(NC2CC(F)(F)C2)nc1-n1cnc(C(=O)N[C@@H](CN)c2cc(F)cc(Cl)c2)c1 [Example 289, (R)-N-(2-amino-1-(3-chloro-5-fluorophenyl)ethyl)-1-(2-((3,3-difluorocyclobutyl)amino)-5-methylpyrimidin-4-yl)-1H-imidazole-4-carboxamide]
IC50 [2]: > 2.5 µM | IC50 ([3]; phospho-RSK1(S380)): 0.5 to 2.5 µM

Cc1cnc(NC2CC=CCC2)nc1-n1cnc(C(=O)N[C@H](CN)c2cccc(Cl)c2)c1 (stereo partly drawn) [Example 292, N-((S)-2-amino-1-(3-chlorophenyl)ethyl)-1-(2-(cyclohex-3-en-1-ylamino)-5-methylpyrimidin-4-yl)-1H-imidazole-4-carboxamide]
IC50 [2]: ≤ 0.1 µM | IC50 ([3]; phospho-RSK1(S380)): ≤ 0.1 µM

Cc1cnc(NC2CCOCC2)nc1-n1cnc(C(=O)NCc2ccccc2C(C)(C)O)c1 [Example 293, N-(2-(2-hydroxypropan-2-yl)benzyl)-1-(5-methyl-2-((tetrahydro-2H-pyran-4-yl)amino)pyrimidin-4-yl)-1H-imidazole-4-carboxamide]
IC50 [2]: 0.5 to 2.5 µM | IC50 ([3]; phospho-RSK1(S380)): 0.5 to 2.5 µM

Cc1cnc(NC2CCOCC2)nc1-n1cnc(C(=O)NCc2cccc(Cl)n2)c1 [Example 307, N-((6-chloropyridin-2-yl)methyl)-1-(5-methyl-2-((tetrahydro-2H-pyran-4-yl)amino)pyrimidin-4-yl)-1H-imidazole-4-carboxamide]
IC50 [1]: 0.5 to 2.5 µM | IC50 ([3]; phospho-RSK1(S380)): 0.5 to 2.5 µM

Cc1cnc(N[C@H]2CCOC2)nc1-n1cnc(C(=O)NCc2cccc(C(F)(F)F)c2)c1 [Example 311, (S)-1-(5-methyl-2-((tetrahydrofuran-3-yl)amino)pyrimidin-4-yl)-N-(3-(trifluoromethyl)benzyl)-1H-imidazole-4-carboxamide]
IC50 [2]: > 2.5 µM | IC50 [3]: 0.5 to 2.5 µM

Cc1cnc(NC2CCOCC2)nc1-n1cnc(C(=O)NC(C(N)=O)c2cccc(Cl)c2)c1 (stereo not shown) [Example 312, N-(2-amino-1-(3-chlorophenyl)-2-oxoethyl)-1-(5-methyl-2-((tetrahydro-2H-pyran-4-yl)amino)pyrimidin-4-yl)-1H-imidazole-4-carboxamide]
IC50 [2]: > 2.5 µM | IC50 [3]: 0.5 to 2.5 µM

Cc1cnc(N[C@H]2CCOC2)nc1-n1cnc(C(=O)NCc2cc(Cl)cc(Cl)c2)c1 [Example 313, (S)-N-(3,5-dichlorobenzyl)-1-(5-methyl-2-((tetrahydrofuran-3-yl)amino)pyrimidin-4-yl)-1H-imidazole-4-carboxamide]
IC50 [2]: > 2.5 µM | IC50 [3]: 0.25 to 0.5 µM

Cc1cnc(N[C@H]2CCOC2)nc1-n1cnc(C(=O)NCc2ccc(Cl)c(Cl)c2)c1 [Example 314, (S)-N-(3,4-dichlorobenzyl)-1-(5-methyl-2-((tetrahydrofuran-3-yl)amino)pyrimidin-4-yl)-1H-imidazole-4-carboxamide]
IC50 [2]: > 2.5 µM | IC50 [3]: 0.25 to 0.5 µM
